# Data as given in ChEMBL document CHEMBL5038591, “Identification of a Novel TAR RNA-Binding Protein 2 Modulator with Potential Therapeutic Activity against Hepatocellular Carcinoma” (J Med Chem, 2021).
# Active and inactive are the calls of the source. The rule behind the calls is not given here.
# How the values were obtained:
# [1] = tested on: SK-HEP1; test: Induction of cell cycle arrest in human SK-HEP1 cells assessed as G1 phase accumulation at 20 uM incubated for 24 hrs by propidium iodide staining based flow cytometry analysis (reference value: 48.61%); type: functional
# [2] = tested on: Mus musculus; test: Downregulation of KIF14 expression in mouse liver at 40 mg/kg measured after 30 days by immunohistochemical staining analysis; type: functional, organism-based; settings: time 30.0 day
# [3] = tested on: SK-HEP1; test: Antiproliferative activity against human SK-HEP1 cells overexpressing TRBP at 20 uM measured by crystal violet dye based colony formation assay; type: functional, cell-based
# [4] = tested on: SK-HEP1; test: Antiproliferative activity against human SK-HEP1 cells assessed as increase in miR-106b-5p level at 20 uM by qRT-PCR analysis; type: functional, cell-based
# [5] = tested on: SK-HEP1; test: Antiproliferative activity against human SK-HEP1 cells assessed as increase in miR-21-5p level at 20 uM by qRT-PCR analysis; type: functional, cell-based
# [6] = tested on: SK-HEP1; test: Antiproliferative activity against human SK-HEP1 cells assessed as increase in miR-26a-5p level at 20 uM by qRT-PCR analysis; type: functional, cell-based
# [7] = tested on: SK-HEP1; test: Antiproliferative activity against human SK-HEP1 cells assessed as decrease in miR135a-5p level at 20 uM by qRT-PCR analysis; type: functional, cell-based
# [8] = tested on: SK-HEP1; test: Antiproliferative activity against human SK-HEP1 cells assessed as decrease in miR-30a-5p level at 20 uM by qRT-PCR analysis; type: functional, cell-based
# [9] = tested on: HeLa; test: Antiproliferative activity against human HeLa cells incubated for 24 hrs by alamar blue assay
# [10] = tested on: HCT-116; test: Antiproliferative activity against human HCT-116 cells incubated for 24 hrs by alamar blue assay; settings: HCT-116, 24 h
# [11] = Antiproliferative activity against human QSG7701 cells incubated for 24 hrs by alamar blue assay; type: functional, cell-based; settings: QSG7701, 24 h
# [12] = tested on: HCT-116; test: Inhibition of colony formation in human HCT-116 cells at 30 uM incubated for 14 days by crystal violet staining based assay; type: functional, cell-based; settings: time 14.0 day
# [13] = tested on: HepG2; test: Inhibition of colony formation in human HepG2 cells at 30 uM incubated for 14 days by crystal violet staining based assay; type: functional, cell-based; settings: time 14.0 day
# [14] = tested on: MDA-MB-231; test: Inhibition of colony formation in human MDA-MB-231 cells at 30 uM incubated for 14 days by crystal violet staining based assay; type: functional, cell-based; settings: time 14.0 day
# [15] = tested on: SK-HEP1; test: Induction of apoptosis in human SK-HEP1 cells at 30 uM incubated for 24 hrs by Annexin V-FITC/PI staining based flow cytometry; type: functional, cell-based
# [16] = tested on: MHCC97; test: Inhibition of cell migration in human MHCC97H cells at 30 uM incubated for 12 hrs by crystal violet staining based transwell assay; type: functional
# [17] = tested on: SK-HEP1; test: Inhibition of epithelial-mesenchymal transition in human SK-HEP1 cells assessed as change in beta-catenin expression at 10 to 50 uM incubated for 24 hrs by Western blot analysis; type: functional, cell-based; settings: dose 10-50 µM
# [18] = tested on: MHCC97; test: Antitumor activity in human MHCC97 cells xenografted in SCID mouse assessed as suppression of tumor growth at 40 mg/kg, ip administered once every 3 day for 30 days by bioluminescence analysis; type: functional, organism-based; settings: time 30.0 day
# [19] = tested on: MHCC97; test: Antimetastatic activity against human MHCC97 cells xenografted in SCID mouse assessed as decrease in liver metastasis at 20 mg/kg, ip administered once every 3 days and measured after 10 days; type: functional, organism-based; settings: time 10.0 day
# [20] = tested on: MHCC97; test: Antimetastatic activity against human MHCC97 cells xenografted in SCID mouse assessed as decrease in liver metastasis at 40 mg/kg, ip administered once every 3 days and measured after 10 days; type: functional, organism-based; settings: time 10.0 day
# [21] = target: Mitogen-activated protein kinase; ERK1/ERK2 (Homo sapiens) (UniProt P27361+P28482); test: Inhibition of ERK1/2 phosphorylation in human SK-HEP1 cells at 30 uM by Western blot analysis; type: cell-based
# Mitogen-activated protein kinase; ERK1/ERK2 (Homo sapiens), sequence (P27361 whole entry, looked up): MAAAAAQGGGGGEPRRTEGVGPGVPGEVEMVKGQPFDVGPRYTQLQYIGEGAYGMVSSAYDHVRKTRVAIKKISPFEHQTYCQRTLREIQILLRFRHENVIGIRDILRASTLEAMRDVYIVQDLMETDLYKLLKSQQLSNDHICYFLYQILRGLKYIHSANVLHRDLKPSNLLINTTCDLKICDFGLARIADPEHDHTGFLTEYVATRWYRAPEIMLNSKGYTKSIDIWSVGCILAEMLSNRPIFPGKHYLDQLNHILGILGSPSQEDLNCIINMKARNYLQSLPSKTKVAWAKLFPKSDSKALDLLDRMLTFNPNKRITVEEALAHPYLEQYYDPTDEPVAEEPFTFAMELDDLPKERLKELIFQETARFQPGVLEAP
# Mitogen-activated protein kinase; ERK1/ERK2 (Homo sapiens), sequence (P28482 whole entry, looked up): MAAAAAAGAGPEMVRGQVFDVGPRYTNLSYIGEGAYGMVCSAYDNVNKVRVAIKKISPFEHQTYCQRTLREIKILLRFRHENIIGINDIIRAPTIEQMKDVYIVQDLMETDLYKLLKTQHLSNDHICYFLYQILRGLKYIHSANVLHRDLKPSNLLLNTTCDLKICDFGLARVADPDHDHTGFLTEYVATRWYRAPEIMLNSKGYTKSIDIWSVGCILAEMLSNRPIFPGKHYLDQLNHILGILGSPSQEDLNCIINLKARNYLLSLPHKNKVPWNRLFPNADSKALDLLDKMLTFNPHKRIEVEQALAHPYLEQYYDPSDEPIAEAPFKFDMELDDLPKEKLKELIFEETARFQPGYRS
# [22] = target: Signal transducer and activator of transcription 3 (Homo sapiens) (UniProt P40763); test: Inhibition of STAT3 phosphorylation in human SK-HEP1 cells at 30 uM by Western blot analysis; type: cell-based
# Signal transducer and activator of transcription 3 (Homo sapiens), sequence (P40763 whole entry): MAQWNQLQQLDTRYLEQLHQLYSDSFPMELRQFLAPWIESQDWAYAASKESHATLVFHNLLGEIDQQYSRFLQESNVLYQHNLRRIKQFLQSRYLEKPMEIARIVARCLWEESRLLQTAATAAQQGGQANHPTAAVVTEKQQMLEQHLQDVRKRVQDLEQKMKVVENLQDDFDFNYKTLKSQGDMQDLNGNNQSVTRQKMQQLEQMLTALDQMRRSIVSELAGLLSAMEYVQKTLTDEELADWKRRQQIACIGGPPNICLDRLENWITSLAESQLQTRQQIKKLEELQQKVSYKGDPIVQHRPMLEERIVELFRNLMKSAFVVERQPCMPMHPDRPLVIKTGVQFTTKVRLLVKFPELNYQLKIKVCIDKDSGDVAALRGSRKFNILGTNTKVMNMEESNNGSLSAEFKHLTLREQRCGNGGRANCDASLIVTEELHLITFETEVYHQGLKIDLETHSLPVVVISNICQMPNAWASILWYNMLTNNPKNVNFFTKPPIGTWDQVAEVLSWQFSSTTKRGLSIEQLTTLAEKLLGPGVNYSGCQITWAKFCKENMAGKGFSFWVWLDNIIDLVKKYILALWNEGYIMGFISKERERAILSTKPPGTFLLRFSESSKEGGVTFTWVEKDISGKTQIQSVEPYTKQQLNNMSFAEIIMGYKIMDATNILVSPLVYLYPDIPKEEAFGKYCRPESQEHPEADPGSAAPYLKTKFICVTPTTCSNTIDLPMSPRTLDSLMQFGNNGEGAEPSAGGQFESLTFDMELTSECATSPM
# [23] = target: T1, Inhibitor of nuclear factor kappa-B kinase subunit beta (Homo sapiens) (UniProt O14920); test: Inhibition of IkappaB phosphorylation in human SK-HEP1 cells at 30 uM by Western blot analysis; type: cell-based
# T1 sequence (whole entry): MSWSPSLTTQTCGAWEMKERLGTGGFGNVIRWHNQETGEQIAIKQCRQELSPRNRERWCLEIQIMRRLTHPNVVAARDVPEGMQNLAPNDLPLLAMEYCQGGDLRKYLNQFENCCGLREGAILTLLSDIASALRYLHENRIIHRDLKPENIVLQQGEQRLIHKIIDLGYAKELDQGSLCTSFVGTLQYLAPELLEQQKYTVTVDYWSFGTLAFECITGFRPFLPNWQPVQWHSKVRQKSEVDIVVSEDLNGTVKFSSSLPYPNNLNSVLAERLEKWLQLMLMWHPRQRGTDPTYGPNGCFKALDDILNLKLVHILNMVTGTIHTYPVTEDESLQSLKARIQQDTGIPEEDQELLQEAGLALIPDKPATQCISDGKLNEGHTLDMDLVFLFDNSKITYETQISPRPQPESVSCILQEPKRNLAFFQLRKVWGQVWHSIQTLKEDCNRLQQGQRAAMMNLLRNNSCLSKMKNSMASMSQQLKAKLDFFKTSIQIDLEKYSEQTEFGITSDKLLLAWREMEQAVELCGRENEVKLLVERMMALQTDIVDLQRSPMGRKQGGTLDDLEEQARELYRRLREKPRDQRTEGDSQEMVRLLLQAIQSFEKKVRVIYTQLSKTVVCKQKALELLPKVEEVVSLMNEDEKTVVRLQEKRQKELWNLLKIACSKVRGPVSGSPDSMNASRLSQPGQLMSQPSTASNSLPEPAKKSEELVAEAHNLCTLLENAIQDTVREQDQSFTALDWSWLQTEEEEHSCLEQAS
# [24] = tested on: Mus musculus; test: Downregulation of TPX2 expression in mouse liver at 40 mg/kg measured after 30 days by immunohistochemical staining analysis; type: functional, organism-based; settings: time 30.0 day
# [25] = tested on: Mus musculus; test: Downregulation of CDC20 expression in mouse liver at 40 mg/kg measured after 30 days by immunohistochemical staining analysis; type: functional, organism-based; settings: time 30.0 day
# [26] = tested on: SK-HEP1; test: Inhibition of cell migration in human SK-HEP1 cells knockdown TRBP at 20 uM measured after 12 hrs using crystal violet staining inverted microscope based transwell assay; type: functional
# [27] = tested on: SK-HEP1; test: Antiproliferative activity against human SK-HEP1 cells assessed as increase in miR-122-5p level at 20 uM by qRT-PCR analysis; type: functional, cell-based
# [28] = tested on: SK-HEP1; test: Antiproliferative activity against human SK-HEP1 cells assessed as increase in miR-222-5p level at 20 uM by qRT-PCR analysis; type: functional, cell-based
# [29] = tested on: HCT-116; test: Antiproliferative activity against human HCT-116 cells at 25 uM incubated for 24 hrs by alamar blue assay; type: functional, cell-based
# [30] = tested on: MHCC97; test: Antitumor activity against human MHCC97 cells xenografted in SCID mouse assessed as decrease in tumor size at 40 mg/kg, ip administered once every 3 days and measured after 10 days; type: functional, organism-based; settings: time 10.0 day
# [31] = tested on: SK-HEP1; test: Effect on TRBP protein expression in human SK-HEP1 cells at 30 uM after 24 hrs by immunoblot analysis; type: functional, cell-based
compound,measurement,setting,value
COc1cc2c(c(O)c1OC)-c1c(cc3c(c1OC)OCO3)C[C@H](C)[C@H](C)C2,Activity,[1],57.4%
same,Activity,[2],Active
same,Activity,[3],Active
same,Activity,[4],Active
same,Activity,[5],Active
same,Activity,[6],Active
same,Activity,[7],inactive
same,Activity,[8],inactive
same,IC50,[9],32.8 µM
same,IC50,[10],55.4 µM
same,IC50,[11],53 µM
same,inhibition,[12],Active
same,inhibition,[13],Active
same,inhibition,[14],Active
same,Activity,[15],inactive
same,inhibition,[16],Active
same,inhibition,[17],inactive
same,Activity,[18],Active
same,Activity,[19],inactive
same,Activity,[20],Active
same,inhibition,[21],Active
same,inhibition,[22],inactive
same,inhibition,[23],Active
same,Activity,[24],Active
same,Activity,[25],Active
same,inhibition,[26],inactive
same,Activity,[27],Active
same,Activity,[28],inactive
same,Activity,[29],inactive
same,Activity,[30],Active
same,Activity,[31],inactive
